Source: US9918985B2, “Compounds and their use as BACE inhibitors” (ASTRAZENECA AB, priority 2010, dated 2018)

Each molecule was assayed against human β-Secretase (soluble part, sBACE-Fc) (Homo sapiens (Human), UniProt P56817) (assay: TR-FRET assay). Details: standard TR-FRET assay, 15 minutes reaction at r.t.
Type: biochemical
Experimental: The β-secretase enzyme used in the TR-FRET is prepared as follows:
The cDNA for the soluble part of the human β-Secretase (AA 1-AA 460) was cloned using the ASP2-Fc10-1-IRES-GFP-neoK mammalian expression vector. The gene was fused to the Fc domain of IgG1 (affinity tag) and stably cloned into HEK 293 cells.
The robotic systems Biomek FX and Velocity 11 were used for all liquid handling and the enzyme and substrate solutions were kept on ice until they were placed in the robotic system. Enzyme (9 μl) was added to the plate then 1 μl of compound in dimethylsulphoxide was added, mixed and pre-incubated for 10 minutes. Substrate (10 μl) was then added, mixed and the reaction proceeded for 15 minutes at r.t. The reaction was stopped with the addition of Stop solution (7 μl, NaAcetate, pH 9). […] The dimethylsulphoxide control, instead of test compound, defined the 100% activity level and 0% activity was defined by wells lacking enzyme (replaced with reaction buffer).

human β-Secretase (soluble part, sBACE-Fc), sequence (P56817 22-460): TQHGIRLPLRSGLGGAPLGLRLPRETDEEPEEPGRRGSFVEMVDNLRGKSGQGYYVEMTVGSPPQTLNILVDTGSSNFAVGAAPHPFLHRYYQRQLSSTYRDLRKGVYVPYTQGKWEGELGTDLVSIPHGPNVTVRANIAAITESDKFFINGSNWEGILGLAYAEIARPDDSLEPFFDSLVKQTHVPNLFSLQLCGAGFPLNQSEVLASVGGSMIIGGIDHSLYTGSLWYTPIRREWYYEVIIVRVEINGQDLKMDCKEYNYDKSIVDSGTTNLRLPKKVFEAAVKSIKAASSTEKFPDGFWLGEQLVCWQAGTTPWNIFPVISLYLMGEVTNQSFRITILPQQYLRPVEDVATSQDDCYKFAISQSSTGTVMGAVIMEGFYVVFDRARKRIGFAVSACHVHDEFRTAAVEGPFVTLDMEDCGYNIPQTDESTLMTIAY

| SMILES | IC50 |
| --- | --- |
| CO[C@H]1CC[C@]2(CC1)Cc1ccc(-c3ccc(F)cc3F)cc1[C@@]21N=C(C)C(N)=N1 [Example 103, (1r,1′R,4R)-6′-(2,4-Difluorophenyl)-4-methoxy-5″-methyl-3′H-dispiro[cyclohexane-1,2′-indene-1′,2″-imidazol]-4″-amine] | 34 nM |
| CCO[C@H]1CC[C@]2(CC1)Cc1ccc(Br)cc1C21N=C(C)C(N)=N1 (stereo partly drawn) [Example 130, (1r,4r)-6′-Bromo-4-ethoxy-5″-methyl-3′H-dispiro[cyclohexane-1,2′-indene-1′,2″-imidazol]-4″-amine] | 842 nM |

What follows are molecules tested on sAPPβ release in SH-SY5Y cells (assay: sAPPβ release assay). Details: 17 h incubation.
Type: cell-based
Experimental: Thaw cells and seed at a conc. of around 10000 cells/well in DMEM/F-12 with Glutamax, 10% FCS and 1% non-essential amino acids to a 384-well tissue culture treated plate, 100 μL cell susp/well. […] The cell medium was removed, followed by addition of 30 μL compound diluted in DMEM/F-12 with Glutamax, 10% FCS, 1% non-essential amino acids and 1% PeSt to a final conc. of 1% DMSO. The compounds were incubated with the cells for 17 h (overnight) at 37° C., 5% CO2. Meso Scale Discovery (MSD) plates were used for the detection of sAPPIβ release. MSD sAPPIβ plates were blocked in 1% BSA in Tris wash buffer (40 μL/well) for 1 h on shake at r.t. and washed 1 time in Tris wash buffer (40 μL/well). 20 μL of medium was transferred to the pre-blocked and washed MSD sAPPIβ microplates, and the cell plates were further used in an ATP assay to measure cytotoxicity. The MSD plates were incubated with shaking at r.t. for 2 h and the media discarded. 10 μL detection antibody was added (1 nM) per well followed by incubation with shaking at r.t. for 2 h and then discarded. 40 μL Read Buffer was added per well and the plates were read in a SECTOR Imager.

| SMILES | IC50 |
| --- | --- |
| CCC1=NC2(N=C1N)c1cc(-c3cncc(Cl)c3)ccc1C[C@]21CC[C@@H](OC)CC1 (single isomer, unassigned; isomer 1) [Example 66 Isomer 1, (1r,4r)-6′-(5-chloropyridin-3-yl)-5″-ethyl-4-methoxy-3′H-dispiro[cyclohexane-1,2′-indene-1′,2″-imidazol]-4″-amine] | 1.6 nM |
| CC#Cc1cncc(-c2ccc3c(c2)C2(N=C(N)C(CC)=N2)[C@]2(CC[C@H](OC)CC2)C3)c1 (single isomer, unassigned; isomer 1) [Example 68 Isomer 1, (1r,4r)-5″-ethyl-4-methoxy-6′-[5-(prop-1-yn-1-yl)pyridin-3-yl]-3′H-dispiro[cyclohexane-1,2′-indene-1′,2″-imidazol]-4″-amine] | 0.38 nM |
| CCC1=NC2(N=C1N)c1cc(-c3cccc(C#N)c3)ccc1C[C@]21CC[C@@H](OC)CC1 (single isomer, unassigned; isomer 1) [Example 71 Isomer 1, 3-[(1r,4r)-4″-amino-5″-ethyl-4-methoxy-3′H-dispiro-[cyclohexane-1,2′-indene-1′,2″-imidazol]-6′-yl]benzonitrile] | 5.2 nM |
| CCC1=NC2(N=C1N)c1cc(-c3cccc(C#N)c3)ccc1C[C@]21CC[C@@H](OC)CC1 (single isomer, unassigned; isomer 2) [Example 71 Isomer 2, 3-[(1r,4r)-4″-amino-5″-ethyl-4-methoxy-3′H-dispiro-[cyclohexane-1,2′-indene-1′,2″-imidazol]-6′-yl]benzonitrile] | 763 nM |
